Laboratory results: patent US20250296953A1, “3,4-THIAZOLO-STEROIDS AND METHODS OF MAKING AND USING THE SAME” (Arkansas State University - Jonesboro, priority 2018, published 2025)
Where two headings read alike, the source gives them in different places.

How the values were obtained:
glioblastoma (SF-295) = assay: NCI 60 five dose screen
RPMI-8226 = assay: NCI 60 five dose screen; details: Homo sapiens
SF-539 = assay: NCI 60 one dose screen; type: cell-based, human; details: one dose; CNS Cancer; SF-539
[1] = system: 60 different human tumor cell lines; assay: NCI Development Therapeutics Program 60 cell line screen, one dose; type: cell-based
[2] = system: 60 different human tumor cell lines; details: five dose
NCI-H522 (NSCLC) = assay: NCI 60 one dose screen; type: cell-based, human; details: Non-small Cell Lung Cancer
SR = assay: NCI 60 five dose screen; details: Homo sapiens, SR
HCT-15 (Colon Cancer) = assay: NCI 60 one dose screen; type: cell-based, human

C[C@]12CCc3sc(Nc4ccc(F)cc4F)nc3C1=CC[C@@H]1[C@@H]2CC[C@]2(C)C(=O)CC[C@@H]12 [IIa.10, (1S,2R,13R,14S,18S)-7-(2,4-difluoroanilino)-2,18-dimethyl-6-thia-8-azapentacyclo[11.7.0.02,10.05,9.014,18]icosa-5(9),7,10-trien-17-one]
CC50 (glioblastoma (SF-295); Homo sapiens, SF-295, read-out: LC50): > 100000 nM
TGI (glioblastoma (SF-295); SF-295 (CNS Cancer), five dose): >1.00E−4
GI50 (RPMI-8226; RPMI-8226): 1880 nM
CC50 (RPMI-8226; RPMI-8226, read-out: LC50): > 100000 nM
Growth Percent (SF-539): 49.60%
Growth Percent ([1]; Breast Cancer, BT-549): 59.58%
Growth Percent ([1]; Breast Cancer, HS 578T): 55.28%
Growth Percent ([1]; Breast Cancer, MCF7): 14.62%
Growth Percent ([1]; Breast Cancer, MDA-MB-231/ATCC): 76.10%
Growth Percent ([1]; Breast Cancer, MDA-MB-468): 23.25%
Growth Percent ([1]; Breast Cancer, T-47D): 48.94%
Growth Percent ([1]; CNS Cancer, SF-268): 70.67%
Growth Percent ([1]; CNS Cancer, SNB-19): 74.13%
Growth Percent ([1]; CNS Cancer, SNB-75): 69.43%
Growth Percent ([1]; CNS Cancer, U251): 40.73%
Growth Percent ([1]; Colon Cancer, COLO 205): 54.33%
Growth Percent ([1]; Colon Cancer, HCC-2998): 71.64%
Growth Percent ([1]; Colon Cancer, HCT-116): −23.35%
Growth Percent ([1]; Colon Cancer, HT29): 30.06%
Growth Percent ([1]; Colon Cancer, KM12): 57.14%
Growth Percent ([1]; Colon Cancer, SW-620): 7.16%
Growth Percent ([1]; Leukemia, CCRF-CEM): 10.07%
Growth Percent ([1]; Leukemia, HL-60(TB)): 21.35%
Growth Percent ([1]; Leukemia, K-562): 2.15%
Growth Percent ([1]; Leukemia, MOLT-4): 3.63%
Growth Percent ([1]; Leukemia, RPMI-8226): −20.85%
Growth Percent ([1]; Leukemia, SR): .71%
Growth Percent ([1]; Melanoma, LOX IMVI): −49.65%
Growth Percent ([1]; Melanoma, M14): 57.76%
Growth Percent ([1]; Melanoma, MALME-3M): 69.51%
Growth Percent ([1]; Melanoma, MDA-MB-435): 51.52%
Growth Percent ([1]; Melanoma, SK-MEL-2): 76.42%
Growth Percent ([1]; Melanoma, SK-MEL-5): 76.86%
Growth Percent ([1]; Melanoma, SK-MEL-28): 84.36%
Growth Percent ([1]; Melanoma, UACC-62): 67.65%
Growth Percent ([1]; Melanoma, UACC-257): 71.94%
Growth Percent ([1]; Non-small Cell Lung Cancer, A549/ATCC): 61.70%
Growth Percent ([1]; Non-small Cell Lung Cancer, EKVX): 78.36%
Growth Percent ([1]; Non-small Cell Lung Cancer, HOP-62): 87.08%
Growth Percent ([1]; Non-small Cell Lung Cancer, HOP-92): 77.08%
Growth Percent ([1]; Non-small Cell Lung Cancer, NCI-H23): 66.21%
Growth Percent ([1]; Non-small Cell Lung Cancer, NCI-H226): 84.23%
Growth Percent ([1]; Non-small Cell Lung Cancer, NCI-H322M): 84.48%
Growth Percent ([1]; Non-small Cell Lung Cancer, NCI-H460): 60.86%
Growth Percent ([1]; Ovarian Cancer, IGROV1): 62.11%
Growth Percent ([1]; Ovarian Cancer, NCI/ADR-RES): 67.57%
Growth Percent ([1]; Ovarian Cancer, OVCAR-3): −4.15%
Growth Percent ([1]; Ovarian Cancer, OVCAR-4): 66.68%
Growth Percent ([1]; Ovarian Cancer, OVCAR-5): 91.77%
Growth Percent ([1]; Ovarian Cancer, OVCAR-8): 45.20%
Growth Percent ([1]; Ovarian Cancer, SK-OV-3): 84.10%
Growth Percent ([1]; Prostate Cancer, DU-145): 24.05%
Growth Percent ([1]; Prostate Cancer, PC-3): 52.88%
Growth Percent ([1]; Renal Cancer, 786-0): −27.72%
Growth Percent ([1]; Renal Cancer, A498): 77.80%
Growth Percent ([1]; Renal Cancer, ACHN): 37.67%
Growth Percent ([1]; Renal Cancer, CAKI-1): 38.44%
Growth Percent ([1]; Renal Cancer, RXF 393): 5.60%
Growth Percent ([1]; Renal Cancer, SN12C): 64.13%
Growth Percent ([1]; Renal Cancer, TK-10): 50.24%
Growth Percent ([1]; Renal Cancer, UO-31): 42.87%
TGI ([2]; A498 (Renal Cancer)): >1.00E−4
TGI ([2]; A549/ATCC (Non-small Cell Lung Cancer)): >1.00E−4
TGI ([2]; BT-549 (Breast Cancer)): >1.00E−4
TGI ([2]; EKVX (Non-small Cell Lung Cancer)): >1.00E−4
TGI ([2]; HS 578T (Breast Cancer)): >1.00E−4
TGI ([2]; K-562 (Leukemia)): >1.00E−4
TGI ([2]; MOLT-4 (Leukemia)): >1.00E−4
TGI ([2]; NCI-H322M (Non-small Cell Lung Cancer)): >1.00E−4
TGI ([2]; OVCAR-4 (Ovarian Cancer)): >1.00E−4
TGI ([2]; OVCAR-5 (Ovarian Cancer)): >1.00E−4
TGI ([2]; OVCAR-8 (Ovarian Cancer)): >1.00E−4
TGI ([2]; SK-OV-3 (Ovarian Cancer)): >1.00E−4
TGI ([2]; SNB-19 (CNS Cancer)): >1.00E−4
TGI ([2]; U251 (CNS Cancer)): >1.00E−4
Growth Percent (NCI-H522 (NSCLC)): 42.56%
GI50 (SR): 2900 nM
CC50 (SR; read-out: LC50): > 100000 nM
Growth Percent (HCT-15 (Colon Cancer)): 7.76%
